According to patent US20040014791A1, “Thiazolidinedione derivative and its use as antidiabetic” (priority 2000, published 2004):

How the values were obtained:
[1] = Solid state stability of the drug substance (storage, HPLC assay for final content and degradation products); format: physicochemical; details: 1 month, product of Example 3
Protocol: The solid state stability of the drug substance was determined by storing approximately 1.0 g of the material in a glass bottle at a) 40° C./75% Relative Humidity (RH), open exposure, for 1 month and b) at 50° C., closed, foe 1 month. The material was assayed by HPLC for final content and degradation products in both cases.

[2] = Flow properties: Hausner Ratio (bulk density vs tapped bulk density); format: physicochemical; details: ratio between the bulk density and the tapped bulk density; product of Example 3
Protocol: When used herein in respect of certain compounds the term “good flow properties” is suitably characterised by the said compound having a Hausner ratio of less than or equal to 1.5, especially of less than or equal to 1.25.
Flow Properties of the Fumarate
The ratio between the bulk density and the tapped bulk density (Hausner Ratio) of the Fumarate was determined using standard methods (“Pharmaceutics—The Science of Dosage Form Design”, editor M. Aulton, 1988, published by: Churchill Livingstone).

[3] = 40° C./75% Relative Humidity (RH), open exposure

CN(CCOc1ccc(CC2SC(=O)NC2=O)cc1)c1ccccn1.O=C(O)/C=C/C(=O)O (centres unmarked) [Fumarate, 5-[4-[2-(N-methyl-N-(2-pyridyl)amino)ethoxy]benzyl]thiazolidine-2,4-dione fumarate]
Solid state stability: HPLC assay [1, 3]: 100 % initial | Solid state stability: degradation observed [1, 3]: No significant degradation observed | Solid state stability: HPLC assay ([1]; 50° C., closed): 99 % initial | Solid state stability: degradation observed ([1]; 50° C., closed): No significant degradation observed | Hausner Ratio [2]: 1.0
